This is an account of results in patent publication US12011444B2, “N-substituted indole derivatives as PGE2 receptor modulators” (Idorsia Pharmaceuticals Ltd, priority 2015, dated 2024).

The term IC50 denotes the concentration needed to halve the response being measured. A high value points to a need for much substance.

One experiment addresses EP4 (Homo sapiens (Human), UniProt P35408). Nature of the experiment: hEP4 cAMP assay (BT549 breast cancer cells, HTRF cAMP). The settings on record: antagonistic activity; mean values where measured multiple times. Type of experiment: cell-based. As to the method: Plate is pre-incubated 45 minutes at room temperature. Subsequently, 2.5 microliters of PGE2 (final conc. 6 nM) are transferred into the assay plate. Plate is incubated 30 minutes at room temperature.
(In general: Changes in cAMP serve as a functional read-out for many G protein-coupled receptors.)

In a further experiment the target is EP2 (Homo sapiens (Human), UniProt P43116).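 Also: antagonism of PGE2-stimulated cAMP accumulation in SF295 human glioblastoma cells with endogenous EP2, cAMP read by HTRF, expressed relative to DMSO control.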
Sequence of EP2 (P43116 whole entry): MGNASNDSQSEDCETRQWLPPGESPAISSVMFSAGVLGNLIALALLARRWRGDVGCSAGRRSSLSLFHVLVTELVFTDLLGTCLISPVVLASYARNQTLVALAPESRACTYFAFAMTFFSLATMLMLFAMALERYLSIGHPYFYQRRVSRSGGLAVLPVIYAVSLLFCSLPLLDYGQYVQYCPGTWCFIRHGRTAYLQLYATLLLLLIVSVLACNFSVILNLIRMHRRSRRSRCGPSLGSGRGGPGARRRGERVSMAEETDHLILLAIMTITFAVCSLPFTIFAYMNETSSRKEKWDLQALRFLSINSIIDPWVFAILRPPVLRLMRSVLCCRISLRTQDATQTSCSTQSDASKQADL
A further experiment deals with PTGER2 (EP2) (Homo sapiens (Human), UniProt P43116). Description: hEP2 b-arrestin assay (PathHunter HEK 293 PTGER2 b-arrestin cells). The settings on record: antagonistic activity on hEP2; mean where measured multiple times. Type of experiment: cell-based. A digest of the protocol:
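Readout is β-galactosidase complementation luminescence, expressed as percent of DMSO control (duplicates). PathHunter HEK293 EP2/β-arrestin 2 cells, grown 24 h, received compound for 15 min at 37 °C before a 120 min challenge with PGE2 at 5 μM final, followed by 1 h detection at room temperature.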

The target in another experiment is PTRGER4 (EP4) (Homo sapiens (Human), UniProt P35408). Nature of the experiment: hEP4 b-arrestin assay (PathHunter HEK 293 PTGER4 b-arrestin cells). In kind it is cell-based. The settings on record: antagonistic activity on hEP4; mean where measured multiple times. A digest of the protocol: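 Antagonist mode: compound is given 15 min at 37 °C, then 20 nM (final) PGE2 for 120 min, in HEK293 cells stably expressing EP4 fused to ProLink and β-arrestin 2 fused to EA. Recruitment read as β-gal luminescence after 1 h reagent at room temperature, as percent of DMSO control.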
Sequence of PTRGER4 (EP4) (P35408 whole entry, looked up, the tested form may be a part): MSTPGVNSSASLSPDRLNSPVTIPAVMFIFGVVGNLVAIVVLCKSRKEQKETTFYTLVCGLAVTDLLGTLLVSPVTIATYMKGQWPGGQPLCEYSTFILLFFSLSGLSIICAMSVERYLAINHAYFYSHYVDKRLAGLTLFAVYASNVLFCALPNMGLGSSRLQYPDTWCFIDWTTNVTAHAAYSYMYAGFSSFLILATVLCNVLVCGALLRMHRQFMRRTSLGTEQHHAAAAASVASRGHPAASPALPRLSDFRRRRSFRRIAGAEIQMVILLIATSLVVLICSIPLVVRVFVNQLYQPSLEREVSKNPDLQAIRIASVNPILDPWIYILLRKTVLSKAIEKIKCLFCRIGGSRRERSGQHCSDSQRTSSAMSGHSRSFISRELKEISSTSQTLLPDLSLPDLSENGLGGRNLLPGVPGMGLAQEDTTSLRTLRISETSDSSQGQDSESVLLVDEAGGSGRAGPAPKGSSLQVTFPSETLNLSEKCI

Sequence of EP4 (P35408 whole entry): as the sequence (P35408 whole entry, looked up, the tested form may be a part) above
Sequence of PTGER2 (EP2) (P43116 whole entry): as the sequence (P43116 whole entry) above

Turning to `COc1cc(-c2cc(NCCn3c(C)cc4ccccc43)ncn2)ccc1-c1nnn[nH]1` [Example 746, {6-[3-Methoxy-4-(1H-tetrazol-5-yl)-phenyl]-pyrimidin-4-yl}-[2-(2-methyl-indol-1-yl)-ethyl]-amine], the IC50 against EP4 is 869 nM; on EP2, 10 nM.

Turning to `COc1cc(-c2cc(NCCn3c(C)cc4c(F)ccc(F)c43)ncn2)ccc1-c1nnn[nH]1` [Example 747, [2-(4,7-Difluoro-2-methyl-indol-1-yl)-ethyl]-{6-[3-methoxy-4-(1H-tetrazol-5-yl)-phenyl]-pyrimidin-4-yl}-amine], the IC50 on EP4 was found to be 318 nM; at EP2 it was 3 nM.

With `COc1cc(-c2cc(NCCn3c(C)cc4c(C)ccc(F)c43)ncn2)ccc1-c1nnn[nH]1` [Example 748, [2-(7-Fluoro-2,4-dimethyl-indol-1-yl)-ethyl]-{6-[3-methoxy-4-(1H-tetrazol-5-yl)-phenyl]-pyrimidin-4-yl}-amine], the IC50 against EP4 was 170 nM; against EP2, 70 nM.

As to `COc1cc(-c2ccc(-c3cc(NCCn4c(C)cc5c(OC)cc(F)cc54)ncn3)cc2)ncn1` [Example 749, [2-(6-Fluoro-4-methoxy-2-methyl-indol-1-yl)-ethyl]-{6-[4-(6-methoxy-pyrimidin-4-yl)-phenyl]-pyrimidin-4-yl}-amine], the results for the IC50 on EP4 and against EP2 were 425 nM and 81 nM, respectively.

As for `COc1cc(F)cc2c1cc(C)n2CCNc1cc(-c2ccc(-c3cnccn3)cc2)ncn1` [Example 750, [2-(6-Fluoro-4-methoxy-2-methyl-indol-1-yl)-ethyl]-[6-(4-pyrazin-2-yl-phenyl)-pyrimidin-4-yl]-amine], the IC50 at EP4 is 91 nM; against EP2, 16 nM.

For the compound `COc1cc(F)cc2c1cc(C)n2CCNc1cc(-c2ccc(-c3nccs3)cc2)ncn1` [Example 751, [2-(6-Fluoro-4-methoxy-2-methyl-indol-1-yl)-ethyl]-[6-(4-thiazol-2-yl-phenyl)-pyrimidin-4-yl]-amine], the IC50 turned out to be 105 nM on EP4 and 8 nM on EP2.

`COc1cc(F)cc2c1cc(C)n2CCNc1cc(-c2ccc(-c3ncc(C)n3C)cc2)ncn1` [Example 752, {6-[4-(1,5-Dimethyl-1H-imidazol-2-yl)-phenyl]-pyrimidin-4-yl}-[2-(6-fluoro-4-methoxy-2-methyl-indol-1-yl)-ethyl]-amine]: the IC50 on EP4 amounted to 633 nM; at EP2, 85 nM.

`COc1cc(F)cc2c1cc(C)n2CCNc1cc(-c2ccc(-c3ncnn3C)cc2)ncn1` [Example 753, [2-(6-Fluoro-4-methoxy-2-methyl-indol-1-yl)-ethyl]-{6-[4-(2-methyl-2H-[1,2,4]triazol-3-yl)-phenyl]-pyrimidin-4-yl}-amine]: the IC50 worked out at 548 nM against EP4 and 101 nM on EP2.

`COc1cc(F)cc2c1cc(C)n2CCNc1cc(-c2ccc(-c3ncccn3)cc2)ncn1` [Example 755, [2-(6-Fluoro-4-methoxy-2-methyl-indol-1-yl)-ethyl]-[6-(4-pyrimidin-2-yl-phenyl)-pyrimidin-4-yl]-amine]: the IC50 at EP4 is 452 nM; on EP2, 41 nM.

On to `COc1ccc(-c2ccc(-c3cc(NCCn4c(C)cc5c(OC)cc(F)cc54)ncn3)cc2)nn1` [Example 756, [2-(6-Fluoro-4-methoxy-2-methyl-indol-1-yl)-ethyl]-{6-[4-(6-methoxy-pyridazin-3-yl)-phenyl]-pyrimidin-4-yl}-amine], for which the IC50 stood at 194 nM against EP4 and 85 nM on EP2.

Consider `COc1cnc(-c2ccc(-c3cc(NCCn4c(C)cc5c(OC)cc(F)cc54)ncn3)cc2)nc1` [Example 757, [2-(6-Fluoro-4-methoxy-2-methyl-indol-1-yl)-ethyl]-{6-[4-(5-methoxy-pyrimidin-2-yl)-phenyl]-pyrimidin-4-yl}-amine], for which the IC50 was determined as 345 nM against EP4 and 44 nM at EP2.

Turning to `COc1cc(F)cc2c1cc(C)n2CCNc1cc(-c2ccc(-c3nc(C)cs3)cc2)ncn1` [Example 758, [2-(6-Fluoro-4-methoxy-2-methyl-indol-1-yl)-ethyl]-{6-[4-(4-methyl-thiazol-2-yl)-phenyl]-pyrimidin-4-yl}-amine], the IC50 at EP4 is 113 nM; on EP2, 32 nM.

Take `COc1cc(F)cc2c1cc(C)n2CCNc1cc(-c2ccc(-c3cc(F)ccn3)cc2)ncn1` [Example 759, [2-(6-Fluoro-4-methoxy-2-methyl-indol-1-yl)-ethyl]-{6-[4-(4-fluoro-pyridin-2-yl)-phenyl]-pyrimidin-4-yl}-amine]: the values for the IC50 against EP4 and on EP2 were 760 nM and 55 nM, respectively.

As for `COc1cc(F)cc2c1cc(C)n2CCNc1cc(-c2ccc(-c3nc(C)c(C)s3)cc2)ncn1` [Example 760, {6-[4-(4,5-Dimethyl-thiazol-2-yl)-phenyl]-pyrimidin-4-yl}-[2-(6-fluoro-4-methoxy-2-methyl-indol-1-yl)-ethyl]-amine], the IC50 against EP4 worked out at 795 nM; at EP2, 90 nM.

Consider `COc1cncc(-c2ccc(-c3cc(NCCn4c(C)cc5c(OC)cc(F)cc54)ncn3)cc2)n1` [Example 761, [2-(6-Fluoro-4-methoxy-2-methyl-indol-1-yl)-ethyl]-{6-[4-(6-methoxy-pyrazin-2-yl)-phenyl]-pyrimidin-4-yl}-amine], for which the 50% inhibitory concentration (IC50) at EP4 is 161 nM; at EP2 it was 40 nM.

For `COc1cc(F)cc2c1cc(C)n2CCNc1cc(-c2ccc(-c3ncc(F)cn3)cc2)ncn1` [Example 762, [2-(6-Fluoro-4-methoxy-2-methyl-indol-1-yl)-ethyl]-{6-[4-(5-fluoro-pyrimidin-2-yl)-phenyl]-pyrimidin-4-yl}-amine], the results for the IC50 against EP4 and against EP2 were 304 nM and 98 nM, respectively.

With `COc1cc(F)cc2c1cc(C)n2CCNc1cc(-c2ccc(-c3cc(N(C)C)ncn3)cc2)ncn1` [Example 763, 6-(4-(6-((2-(6-Fluoro-4-methoxy-2-methyl-1H-indol-1-yl)ethyl)amino)pyrimidin-4-yl)phenyl)-N,N-dimethylpyrimidin-4-amine], the results for the IC50 at EP4 and against EP2 were 139 nM and 25 nM, respectively.

Consider `Cc1cc2ccccc2n1CCNc1cc(-c2ccc(-c3nccs3)cc2)ncn1` [Example 764, [2-(2-Methyl-indol-1-yl)-ethyl]-[6-(4-thiazol-2-yl-phenyl)-pyrimidin-4-yl]-amine], for which the IC50 on EP4 is 815 nM; on EP2, 8 nM.

In the case of `CCOc1cc(-c2cc(NCCn3c(C)cc4c(OC)ccc(F)c43)ncn2)ccc1C(=O)NOC` [Example 765, 2-Ethoxy-4-{6-[2-(7-fluoro-4-methoxy-2-methyl-indol-1-yl)-ethylamino]-pyrimidin-4-yl}-N-methoxy-benzamide], the IC50 came to 403 nM at EP4 and 13 nM at EP2.

With `CCONC(=O)c1ccc(-c2cc(NCCn3c(C)cc4c(OC)ccc(F)c43)ncn2)cc1OCC` [Example 767, 2,N-Diethoxy-4-{6-[2-(7-fluoro-4-methoxy-2-methyl-indol-1-yl)-ethylamino]-pyrimidin-4-yl}-benzamide], the IC50 on EP4 worked out at 251 nM; against EP2 it was 20 nM.

As to `CCOc1cc(-c2cc(NCCn3c(C)cc4c(C)ccc(F)c43)ncn2)ccc1C(=O)NOCc1ccccc1` [Example 768, N-Benzyloxy-2-ethoxy-4-{6-[2-(7-fluoro-2,4-dimethyl-indol-1-yl)-ethylamino]-pyrimidin-4-yl}-benzamide], the figures for the IC50 against EP4 and on EP2 were 928 nM and 35 nM, respectively.

Turning to `CCOc1cc(-c2cc(NCCn3c(C)cc4c(OC)ccc(F)c43)ncn2)ccc1C(=O)NOC(C)C` [Example 770, 2-Ethoxy-4-{6-[2-(7-fluoro-4-methoxy-2-methyl-indol-1-yl)-ethylamino]-pyrimidin-4-yl}-N-isopropoxy-benzamide], the IC50 against EP4 came out at 374 nM; at EP2 it was 16 nM.

For `Cc1cc2ccccc2n1CCNc1cc(-c2ccc3c(=O)[nH][nH]c3c2)ncn1` [Example 772, 6-{6-[2-(2-Methyl-indol-1-yl)-ethylamino]-pyrimidin-4-yl}-1,2-dihydro-indazol-3-one], the IC50 at EP4 amounted to 317 nM; against EP2, 15 nM.

For `COc1ccc(F)c2c1cc(C)n2CCNc1cc(-c2ccc3c(=O)[nH][nH]c3c2)ncn1` [Example 773, 6-{6-[2-(7-Fluoro-4-methoxy-2-methyl-indol-1-yl)-ethylamino]-pyrimidin-4-yl}-1,2-dihydro-indazol-3-one], the IC50 came out at 49 nM against EP4 and 32 nM against EP2.

For the compound `Cc1cc2ccccc2n1CCNc1cc(-c2ccc3c(=O)[nH]oc3c2)ncn1` [Example 774, 6-{6-[2-(2-Methyl-indol-1-yl)-ethylamino]-pyrimidin-4-yl}-benzo[d]isoxazol-3-one], the IC50 amounted to 637 nM against EP4 and 4 nM against EP2.

On to `CCOc1cc(-c2cc(NCCn3c(Cl)cc4c(OC)ccc(Cl)c43)ncn2)ccc1C(=O)O` [Example 775, 4-{6-[2-(2,7-Dichloro-4-methoxy-indol-1-yl)-ethylamino]-pyrimidin-4-yl}-2-ethoxy-benzoic acid], for which the IC50 on EP4 is 206 nM; at EP2, 10 nM.

For the compound `CCOc1cc(-c2cc(NCCn3c(C#N)cc4c(C)cc(F)cc43)ncn2)ccc1C(=O)O` [compound 395], the IC50 at PTGER2 (EP2) came to 24 nM; on PTRGER4 (EP4), 137 nM.
